From patent US20250051315A1, “COMPOUND, ANGIOTENSIN II TYPE 1 RECEPTOR ANTAGONIST AND PHARMACEUTICAL COMPOSITION” (Alchemedicine, Inc., priority 2021, published 2025) come the findings set out here.

Experiment [1] deals with T1, human angiotensin II type 1 receptor (Homo sapiens, UniProt P30556).
T1 construct: expressed in transfected cells; host or cells: CHO-K1-mt aequorin-Gα16 cells
T1 sequence (P30556 1-359): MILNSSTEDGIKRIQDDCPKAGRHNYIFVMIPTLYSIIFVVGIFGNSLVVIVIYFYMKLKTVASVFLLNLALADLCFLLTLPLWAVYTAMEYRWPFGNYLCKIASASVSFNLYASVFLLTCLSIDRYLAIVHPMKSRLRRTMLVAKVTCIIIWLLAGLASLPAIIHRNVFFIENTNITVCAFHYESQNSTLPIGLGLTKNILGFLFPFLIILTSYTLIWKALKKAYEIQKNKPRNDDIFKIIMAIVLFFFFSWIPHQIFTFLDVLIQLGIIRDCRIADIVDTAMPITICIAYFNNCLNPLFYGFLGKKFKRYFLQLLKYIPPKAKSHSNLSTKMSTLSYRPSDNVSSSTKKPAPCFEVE
Nature of the experiment: Angiotensin II type 1 receptor inhibitory effect (aequorin luminescence, angiotensin II at EC80). It counts as cell-based. As to conditions: CHO-K1-mt aequorin-Gα16 cells expressing human AT1 receptor. The method, then: The inhibitory effect on angiotensin II type 1 receptor was studied by the following method.
CHO-K1-mt aequorin-Gα16 cells forced to express human angiotensin II type 1 receptor (Accession Number: NP 000676.1) were cultured in an antibiotic-free medium for 18 hours and then treated with PBS-EDTA (5 mM EDTA). After centrifugation (2 minutes, 405×g, room temperature), the cells were suspended in assay buffer (DMEM/HAM's F12 with HEPES+0.1% BSA protease free).
1×10^6 cells/mL of the cells were incubated at room temperature for 4 hours or more in the presence of Coelenterazin h (Molecular Probes) at a final concentration of 5 µM to confirm the agonist response by angiotensin II, and determine the concentration of angiotensin II corresponding to EC 80.
Then, 50 μL of the cell suspension treated with Coelenterazin h at 10,000 cells/well and 50 μL of assay buffer containing the test substance (final concentration: 0.5% DMSO) were added to a 96-well plate. After 15 minutes, 100 μL of angiotensin II solution was added so that the final concentration reached the EC80 concentration, and the receptor activity was measured by the amount of luminescence using FDSS6000 (Hamamatsu Photonics). IC50 values were calculated using XLfit (IDBS).

The subject of experiment [2] is Angiotensin II-Induced Hypertensive Activity. Put plainly: Suppressive effect on angiotensin II-induced hypertensive activity. The class given is in vivo. Particulars: anesthetized male Wistar rats; 1 mg/kg intravenously over 10 minutes, then ATII 300 ng/kg i.v.; 20 seconds after ATII; n=3. The procedure:
Male Wistar rats aged 8 to 12 weeks underwent catheterization of the trachea for airway management, catheterization of the carotid artery for blood pressure measurement, and catheterization of the femoral vein for angiotensin II (ATII) administration, under analgesic treatment and urethane anesthesia. After confirming that blood pressure and heart rate had stabilized, 1 mg/kg (15 mL/kg) of solvent (PBS) or test substance (the compound of Example 1) adjusted with the solvent was administered intravenously over 10 minutes. Then, ATII (300 ng/kg) was administered intravenously and blood pressure was monitored until 10 minutes after administration. The test was performed with n=3 in each group. For analysis, using 2 minutes before ATII administration as a pre-value, the systolic and diastolic blood pressures at the pre-value and 20 seconds immediately after ATII administration, when the blood pressure is maximum, were determined and the differences (delta values) from the pre-values were calculated. Student's t-test was used to compare the delta values between the solvent administration group and test substance administration group.

Experiment [3] addresses T2, human endothelin A receptor (Homo sapiens, UniProt P25101).
T2 construct: expressed in transfected cells; host or cells: CHO-K1-mt aequorin cells
T2 sequence (P25101 21-427): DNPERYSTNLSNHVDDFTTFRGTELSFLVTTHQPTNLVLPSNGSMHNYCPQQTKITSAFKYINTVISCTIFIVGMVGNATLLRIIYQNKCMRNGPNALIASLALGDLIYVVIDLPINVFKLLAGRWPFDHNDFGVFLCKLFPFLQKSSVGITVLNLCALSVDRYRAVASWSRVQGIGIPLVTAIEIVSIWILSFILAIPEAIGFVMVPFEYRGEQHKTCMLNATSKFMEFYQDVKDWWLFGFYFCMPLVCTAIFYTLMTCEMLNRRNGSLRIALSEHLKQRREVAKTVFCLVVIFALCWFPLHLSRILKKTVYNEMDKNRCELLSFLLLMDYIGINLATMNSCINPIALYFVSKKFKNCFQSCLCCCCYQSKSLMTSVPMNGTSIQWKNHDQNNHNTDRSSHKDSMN
Nature of the experiment: Endothelin A receptor inhibitory effect (aequorin luminescence, endothelin at EC80). The class given is cell-based. Particulars: CHO-K1-mt aequorin cells expressing human endothelin A receptor, read-out: ETA Receptor Inhibitory Effect. The method, then:
The inhibitory effect on endothelin A receptor was studied by the following method.
CHO-K1-mt aequorin cells forced to express human endothelin A receptor (Accession Number: NP_001948.1) were cultured in an antibiotic-free medium for 18 hours and then treated with PBS-EDTA (5 mM EDTA). After centrifugation (2 minutes, 405×g, room temperature), the cells were suspended in assay buffer (DMEM/HAM'S F12 with HEPES+0.1% BSA protease free). 1×10^6 cells/mL of the cells were incubated at room temperature for 4 hours in the presence of Coelenterazin h (Molecular Probes) at a final concentration of 5 μM to confirm the agonist response by endothelin, and determine the concentration of endothelin corresponding to EC 80.
Then, 50 μL of the cell suspension treated with Coelenterazin h at 10,000 cells/well and 50 μL of assay buffer containing the test substance (final concentration: 0.5% DMSO) were added to a 96-well plate. After 15 minutes, endothelin was added so that the final concentration reached the EC80 concentration, and the receptor activity was measured by the amount of luminescence using FDSS6000 (Hamamatsu Photonics). IC50 values were calculated using XLfit (IDBS).

A value given as a limit tells only on which side of the number the result lay.

In experiment [1], `CCCCC1=NC2(CCCC2)C(=O)N1Cc1ccc(-c2ccccc2S(=O)(=O)Nc2noc(C)c2C)c2c1COC2` [Example 1, 2-(7-((2-Butyl-4-oxo-1,3-diazaspiro[4,4]nona-1-en-3-yl)methyl)-1,3-dihydroisobenzofuran-4-yl)-N-(4,5-dimethylisoxazol-3-yl)benzenesulfonamide] gave an IC50 not above 1 nM. Also, in experiment [2], the “Diastolic Blood Pressure, difference (delta value) from pre-value” was 9 ± 5 and the “Systolic Blood Pressure, difference (delta value) from pre-value” was found to be 8 ± 3. Also, the IC50 in experiment [3] is more than 100 nM.

For `CCCCC1=NC2(CCCC2)C(=O)N1Cc1ccc(-c2ccccc2S(=O)(=O)Nc2ncc(C)nc2OC)c2c1COC2` [Example 2, 2-(7-((2-Butyl-4-oxo-1,3-diazaspiro[4,4]nona-1-en-3-yl)methyl)-1,3-dihydroisobenzofuran-4-yl)-N-(3-methoxy-5-methylpyrazin-2-yl)benzenesulfonamide], the IC50 in experiment [1] and in experiment [3] was 1 to 100 nM throughout.

On to `CCCCC1=NC2(CCCC2)C(=O)N1Cc1ccc(-c2ccccc2S(=O)(=O)Nc2noc(C)c2Cl)c2c1COC2` [Example 3, 2-(7-((2-Butyl-4-oxo-1,3-diazaspiro[4,4]nona-1-en-3-yl)methyl)-1,3-dihydroisobenzofuran-4-yl)-N-(4-chloro-5-methylisoxazol-3-yl)benzenesulfonamide], for which the IC50 in experiment [1] and in experiment [3] was 1 to 100 nM each time.
